Assay results reported in BindingDB's records for doi:10.1021/acs.biochem.5b01325 (University of Texas At San Antonio, 2016).

Biological target: T1, (S)-6-hydroxynicotine oxidase (Paenarthrobacter nicotinovorans, UniProt O86101)
T1 sequence (O86101 whole entry): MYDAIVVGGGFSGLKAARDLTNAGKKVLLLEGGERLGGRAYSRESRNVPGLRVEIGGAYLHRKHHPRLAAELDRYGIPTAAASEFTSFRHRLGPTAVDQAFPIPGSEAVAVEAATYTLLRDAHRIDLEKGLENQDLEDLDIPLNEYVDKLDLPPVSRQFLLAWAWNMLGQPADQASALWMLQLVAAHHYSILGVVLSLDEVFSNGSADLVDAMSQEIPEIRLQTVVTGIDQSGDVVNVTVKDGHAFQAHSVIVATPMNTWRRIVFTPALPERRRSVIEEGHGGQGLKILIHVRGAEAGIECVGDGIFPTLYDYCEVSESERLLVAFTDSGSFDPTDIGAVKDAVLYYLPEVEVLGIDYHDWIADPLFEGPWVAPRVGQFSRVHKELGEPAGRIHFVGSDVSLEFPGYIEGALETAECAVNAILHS
Experiment: Steady-State Kinetics
Conditions: pH 8
Description: Initial rates of amine oxidation were routinely measured by monitoring oxygen consumption in 0.1 M Hepes (pH 8.0) and 0.1 M NaCl at 25 °C using an oxygen electrode (model 5300A, Yellow Springs Instruments, Yellow Springs, OH). With (R,S)-6-hydroxynicotine and (S)-6-hydroxynornicotine, the concentration of enzyme was typically 0.1 μM; this was increased to 4 μM for (S)-nicotine and (R,S)-4-(1-methyl pyrrolidine-2-yl)phenol. The concentration of oxygen was varied by bubbling the desired concentration of oxygen (62 μM to 1.25 mM) into the oxygen electrode cell for ∼10 min.

Structure (SMILES)	Kd
CN1CCC[C@H]1c1ccc(O)cc1 [(S)-4-(1-methylpyrrolidine-2-yl)phenol]	2000 µM
CN1CCC[C@H]1c1ccc(=O)[nH]c1 [(S)-6-hydroxynicotine]	100 µM
O=c1ccc([C@@H]2CCCN2)c[nH]1 [(S)-6-hydroxynornicotine]	300 µM
